In US20260232603A1, “A METHOD OF PREPARING AN AQUEOUS DISPERSION OF NANOPARTICLES” (IQ MEDICAL GMBH, priority 2023, published 2026):
In brackets after ≈: the same amount, converted by molar mass. Where two headings read alike, the source gives them in different places. Each block holds one molecule with its values, some of them ahead of it.

How the values were obtained:
[1] = cited from earlier work
[2] = Table 8, cited from earlier work; for pKa: first value where several are printed
[3] = Pharmacokinetics of tacrolimus encapsulated in E100, sublingual cross-over, rats (2022NCM003); format: in vivo, Sprague Dawley rats; conditions: 5 mg per kg
Method: The pharmacokinetic profile of three different nanoparticular formulations of Tacrolimus after sublingual administration in five naïve male Sprague Dawley rats with 14 days wash-out interval was evaluated. To eliminate the inter-individual variability, the same animals were administered in an intra-individual three-way cross-over after washout period. The animals were housed in a separate temperature-controlled room (20-24° C.) and maintained in a 12 h light/12 h dark cycle. Food and water were available ad libitum throughout the duration of the study.
Formulations were freshly prepared on the day of application using the procedure described herein and administered freshly after arrival.
Dose (and applied volume of the nanosuspension) was adjusted individually to the body weight of the animal.
Test item formulations were administered sublingual to 5 animals with […] wash-out intervals at a dose of 5 mg per kg body weight. Application procedure and blood sampling was as described before.
Tacrolimus whole blood concentrations were analysed by LC-MS/MS and Cmax, tmax, and AUC were calculated.
Preparation of working solutions for calibration standards and quality controls Individual stock solutions were used for preparation of calibration standards and quality control samples (QCs).
All samples were kept on ice until the addition of the precipitation reagent. […]

[4] = Pharmacokinetics of two sirolimus E100 nanoformulations, sublingual cross-over, rats (2022NCM002); format: in vivo; conditions: two nanoparticular formulations (FLM04_025, FLM02_b230)
Method: To eliminate the inter-individual variability, the same animals were administered in an intra-individual two-way cross-over after an appropriate washout period.
Two different approaches were followed in that a surfactant was included either during precipitation (FLM04_025) or after precipitation (FLM02_b230) as shown in FIG. 32.
Formulations were freshly prepared on the day of application using the procedure as described herein.
Test item formulations were administered sublingual to animals with 7 days wash-out intervals at a […] per kg body weight. Application procedure, blood sampling and their as quantification was as described before.

[5] = Pharmacokinetics of sirolimus encapsulated in E100, sublingual, rats (2022NCM001); format: in vivo, Sprague Dawley rats; conditions: 5 mg per kg
Method: Naïve, adult male Sprague Dawley rats of around 300 g body weight were housed in a separate temperature-controlled room (20-24° C.) and maintained in a 12 h light/12 h dark cycle. Food and water were available ad libitum throughout the duration of the study.
Formulation was freshly prepared on the day of application. It was administered sublingually to each animal at a dose of 5 mg per kg body weight.
For sublingual administration, rats were shortly anaesthetized with isoflurane. Prior to application, the sublingual area was blotted dry with cotton swabs. The appropriate volume of the formulation was applied under the tongue with a pipette. The animals were kept in a sitting position for 5 minutes. After 5 minutes the area under the tongue was blotted dry again to avoid oral administration of the remaining suspension. Then the animals were placed into the cage until recovery.
Blood samples were collected by puncture of the lateral tail vein at the following time points: predose, 15 min, 30 min, 1 h, 2 h, 4 h, 8 h and 24 h post dose. At each of the designated time points 20 μl blood was collected from the tail vein into K3-EDTA capillaries (Minivette POCT, […]). The blood samples were transferred into polypropylene tubes and frozen on dry ice within 1-2 min. of sampling and stored at −20° C. until LC-MS analysis. […]

[6] = Saturation solubility of sirolimus in selected solvents; format: physicochemical; conditions: thermodynamic from solid, room temperature, HPLC of supernatant
Method: One task is the production of a highly concentrated dispersion. The prerequisite for this is the use of a solvent for the production of the dispersion in which the active substance has a high solubility. […] Crystalline active ingredient was added to a defined amount of solvent at room temperature while stirring until an insoluble sediment was formed.

[7] = nanoparticular dispersion based on Eudragit E100, rats

SMILES: CCC(C)n1ncn(-c2ccc(N3CCN(c4ccc(OCC5COC(Cn6cncn6)(c6ccc(Cl)cc6Cl)O5)cc4)CC3)cc2)c1=O (stereo not drawn) [Itraconazole]
- Log P [1]: 5.66
- Water solubility [1]: 0.0096 mg/mL

SMILES: O=C(O)CC(O)C(=O)O (stereo not drawn) [Malic acid]
- Water solubility [2]: 218 mg/mL
- pKa [2]: 3.2

SMILES: CCCCCCCC(=O)O [Octanoic Acid]
- pKa [2]: 5.19

SMILES: CCCCCCCC/C=C\CCCCCCCC(=O)O [Oleic Acid]
- Water solubility [2]: 0.0001 mg/mL

SMILES: CCCCCCCCCCCCCCCCCC(=O)O [Stearic Acid]
- pKa [2]: 4.95

- detection in blood after sublingual administration [3, 7]: detected in the blood of all rats
- time of maximum concentration (t_max) ([3]; nanoparticular dispersion based on Eudragit E100, whole blood, rats): 30 min
SMILES: C=CC[C@@H]1/C=C(\C)C[C@H](C)C[C@H](OC)[C@H]2O[C@@](O)(C(=O)C(=O)N3CCCC[C@H]3C(=O)O[C@H](/C(C)=C/[C@@H]3CC[C@@H](O)[C@H](OC)C3)[C@H](C)[C@@H](O)CC1=O)[C@H](C)C[C@@H]2OC [Tacrolimus]
- Log P [1]: 4.5

SMILES: CCCCC(=O)O [Valeric acid]
- Water solubility [2]: 40 mg/mL
- pKa [2]: 5.01

- detection in blood after sublingual administration [4]: detected in the blood of all rats
- time of maximum concentration (t_max) ([5]; 5 min application, nanoparticular dispersion based on Eudragit E100, blood, rats): 30 min
- detection in blood after sublingual administration [5, 7]: detected in the blood of all rats
- solubility ([6]; acetone, organic solvent or mixture, saturation solubility in Acetone (polar aprotic)): ≥ 200 mg/mL
- solubility ([6]; ethanol, organic solvent or mixture, saturation solubility in Ethanol (polar protic)): 179 mg/mL (≈ 196 mM)
- solubility ([6]; iso-propanol, organic solvent or mixture, saturation solubility in iso-Propanol (polar protic)): 25 mg/mL (≈ 27.3 mM)
- solubility ([6]; methanol, organic solvent or mixture, saturation solubility in Methanol (polar protic)): 246 mg/mL (≈ 269 mM)
- solubility ([6]; water, saturation solubility in Water (polar protic)): ~0.001 mg/mL (≈ 0.00109 mM)
SMILES: CO[C@H]1C[C@@H]2CC[C@@H](C)[C@@](O)(O2)C(=O)C(=O)N2CCCC[C@H]2C(=O)O[C@H]([C@H](C)C[C@@H]2CC[C@@H](O)[C@H](OC)C2)CC(=O)[C@H](C)/C=C(\C)[C@@H](O)[C@@H](OC)C(=O)[C@H](C)C[C@H](C)/C=C/C=C/C=C/1C [sirolimus]
- Log P [1]: 4.56
